For 4 compounds, IC50 results are on record in ChEMBL document CHEMBL1221378, “Synthesis of cholestane glycosides bearing OSW-1 disaccharide or its 1-->4-linked analogue and their antitumor activities” (Bioorg Med Chem Lett, 2010).

Common to all, as to assay type: functional, cell-based
One experiment has as its system HCT-8. Nature of the experiment: Cytotoxicity against human HCT8 cells after 72 hrs by MTT assay. Particulars: HCT-8, 72 h.
The subject of the next experiment is Bel-7402. Nature of the experiment: Cytotoxicity against human Bel7402 cells after 72 hrs by MTT assay. To be noted: Bel-7402, 72 h. For orientation: Tetrazolium dyes change colour on reduction, which living cells bring about.
In a further experiment the test system is BGC-823. In words: Cytotoxicity against human BGC823 cells after 72 hrs by MTT assay. Particulars: BGC-823, 72 h.
The next experiment deals with A549. In words: Cytotoxicity against human A549 cells after 72 hrs by MTT assay. Particulars: A549, 72 h.
A further experiment relates to A2780. In words: Cytotoxicity against human A2780 cells after 72 hrs by MTT assay. To be noted: A2780, 72 h.

The IC50 is the concentration that gives 50% inhibition. Low readings indicate greater potency, high ones weaker potency.

Molecules are shown by their SMILES.

Turning to `COc1ccc(C(=O)O[C@H]2[C@H](O[C@@H]3[C@@H](OC(C)=O)[C@H](O[C@H]4C[C@H]5[C@@H]6CC=C7C[C@@H](O)CC[C@]7(C)[C@H]6CC[C@]5(C)[C@H]4[C@H](C)C(=O)CC[C@@H](C)CO)OC[C@H]3O)OC[C@@H](O)[C@@H]2O)cc1`, the IC50 is 23 nM in the experiment with HCT-8; 39 nM with Bel-7402; 13 nM with BGC-823; 46 nM with A549; 73 nM in the experiment with A2780.

Regarding `COc1ccc(C(=O)O[C@H]2[C@H](O[C@@H]3CO[C@@H](O[C@H]4C[C@H]5[C@@H]6CC=C7C[C@@H](O)CC[C@]7(C)[C@H]6CC[C@]5(C)[C@H]4[C@H](C)C(=O)CC[C@@H](C)CO)[C@H](OC(C)=O)[C@H]3O)OC[C@@H](O)[C@@H]2O)cc1`, the concentration for half-maximal inhibition (IC50) in the experiment on HCT-8, in the experiment on Bel-7402, with BGC-823, in the experiment on A549 and with A2780 was greater than 10000 nM throughout.

As to `COc1ccc(C(=O)O[C@H]2[C@H](O[C@@H]3CO[C@@H](O[C@@H](CC[C@@H](C)CO)[C@@H](C)[C@H]4[C@@H](O[C@@H]5OC[C@@H](O[C@@H]6OC[C@@H](O)[C@H](O)[C@H]6OC(=O)c6ccc(OC)cc6)[C@H](O)[C@H]5OC(C)=O)C[C@H]5[C@@H]6CC=C7C[C@@H](O)CC[C@]7(C)[C@H]6CC[C@]45C)[C@H](OC(C)=O)[C@H]3O)OC[C@@H](O)[C@@H]2O)cc1`, the IC50 in the experiment on HCT-8, in the experiment with Bel-7402, in the experiment with BGC-823, in the experiment with A549 and in the experiment on A2780 was greater than 10000 nM each time.

Take `CC(=O)O[C@H]1C(=O)[C@@]2(C)[C@H]([C@H](OC(=O)c3ccccc3)[C@]3(O)C[C@H](OC(=O)[C@H](O)[C@@H](NC(=O)c4ccccc4)c4ccccc4)C(C)=C1C3(C)C)[C@]1(OC(C)=O)CO[C@@H]1C[C@@H]2O` [PACLITAXEL]: the IC50 was 51 nM with HCT-8; 60 nM with Bel-7402; less than 1 nM in the experiment with BGC-823; 16 nM in the experiment with A549; less than 1 nM with A2780.
